Target: T1, Orexin/Hypocretin receptor type 1 (Rattus norvegicus, UniProt P56718)
T1 sequence (P56718 whole entry): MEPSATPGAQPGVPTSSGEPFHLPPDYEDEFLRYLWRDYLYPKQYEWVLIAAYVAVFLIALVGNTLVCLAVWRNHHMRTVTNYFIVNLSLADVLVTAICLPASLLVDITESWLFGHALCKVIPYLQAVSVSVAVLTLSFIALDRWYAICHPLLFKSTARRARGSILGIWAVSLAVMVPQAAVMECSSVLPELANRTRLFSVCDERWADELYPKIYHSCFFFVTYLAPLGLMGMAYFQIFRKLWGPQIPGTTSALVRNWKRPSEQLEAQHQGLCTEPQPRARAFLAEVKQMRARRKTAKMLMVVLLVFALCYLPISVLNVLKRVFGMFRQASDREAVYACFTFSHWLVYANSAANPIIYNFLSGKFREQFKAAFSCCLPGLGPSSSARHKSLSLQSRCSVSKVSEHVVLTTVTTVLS
Assay: Radioligand Binding Assay: Compound potency can be assessed by a radioligand binding assay (described in Bergman et. al. Bioorg. Med. Chem. Lett. 2008, 18, 1425-1430) in which the inhibition constant (Ki) is determined in membranes prepared from CHO cells expressing either the orexin-1 (OX1) or orexin-2 (OX2) receptor.
Format: cell membranes

| Ki [nM] | Compound |
| --- | --- |
| 3.25 | Cc1ccc(-n2nccn2)c(C(=O)N2C[C@H](Nc3nccc4ccccc34)CC[C@H]2C)c1 |
| 1300 | C[C@@H]1CC[C@@H](Oc2cccc3ocnc23)CN1C(=O)c1ccccc1-n1nccn1 |

| Compound | Ki [nM] |
| --- | --- |
| C[C@@H]1CC[C@@H](Oc2ccnc3c(F)cccc23)CN1C(=O)c1ccccc1-n1nccn1 | 560 |
